System: monocistronic NK5.1 HCV replicon in Huh7 cells
Assay: HCV replicon assay, monocistronic replicon cell line
Assay type: cell-based, hepatitis C virus
Conditions: Hepatitis C virus, Huh-7; monocistronic NK5.1 HCV replicon in Huh7 cells; median value; read-out: Mono EC50 Median
How it was run: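 EC50 derives from the HCV RNA/GAPDH RNA ratio by one-step TaqMan RT-PCR, relative to DMSO-only wells. Compounds (six half-log concentrations, 0.6% DMSO) were incubated 3 days at 37 °C with NK5.1 monocistronic replicon Huh7 cells plated a day earlier.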

| Compound | EC50 [µM] |
| --- | --- |
| COc1ccccc1-c1nnc(-c2ccccc2[N+](=O)[O-])o1 [Compound 328, 2-(2-Methoxy-phenyl)-5-(2-nitro-phenyl)-[1,3,4]oxadiazole] | > 32 |
| COc1ccccc1-c1nnc(-c2c(Cl)cccc2Cl)o1 [Compound 329, 2-(2,6-Dichloro-phenyl)-5-(2-methoxy-phenyl)-[1,3,4]oxadiazole] | > 32 |
| COc1ccccc1-c1nnc(-c2ccco2)o1 [Compound 330, 2-Furan-2-yl-5-(2-methoxy-phenyl)-[1,3,4]oxadiazole] | > 32 |
| COc1ccccc1-c1nnc(-c2cccs2)o1 [Compound 331, 2-(2-Methoxy-phenyl)-5-thiophen-2-yl-[1,3,4]oxadiazole] | > 32 |
| Fc1ccccc1-c1nnc(-c2ccccc2)o1 [Compound 332, 2-(2-Fluoro-phenyl)-5-phenyl-[1,3,4]oxadiazole] | > 32 |
| Fc1ccccc1-c1nnc(-c2ccccc2F)o1 [Compound 333, 2,5-Bis-(2-fluoro-phenyl)-[1,3,4]oxadiazole] | > 32 |
| Fc1ccccc1-c1nnc(-c2ccccc2C(F)(F)F)o1 [Compound 334, 2-(2-Fluoro-phenyl)-5-(2-trifluoromethyl-phenyl)-[1,3,4]oxadiazole] | > 32 |
| Fc1ccccc1-c1nnc(-c2c(Cl)cccc2Cl)o1 [Compound 335, 2-(2,6-Dichloro-phenyl)-5-(2-fluoro-phenyl)-[1,3,4]oxadiazole] | > 32 |
| Fc1ccccc1-c1nnc(-c2ccco2)o1 [Compound 336, 2-(2-Fluoro-phenyl)-5-furan-2-yl-[1,3,4]oxadiazole] | > 32 |
| Fc1ccccc1-c1nnc(-c2cccs2)o1 [Compound 337, 2-(2-Fluoro-phenyl)-5-thiophen-2-yl-[1,3,4]oxadiazole] | > 32 |
| Oc1ccc2ccccc2c1-c1nnc(-c2ncccc2C(F)(F)F)o1 [Compound 338, 1-[5-(3-Trifluoromethyl-pyridin-2-yl)-[1,3,4]oxadiazol-2-yl]-naphthalen-2-ol] | > 19 |
| Cc1ccccc1-c1nnc(-c2ccccn2)o1 [Compound 339, 2-(5-o-Tolyl-[1,3,4]oxadiazol-2-yl)-pyridine] | > 32 |
| Cc1ccccc1-c1nnc(-c2ncccc2C(F)(F)F)o1 [Compound 340, 2-(5-o-Tolyl-[1,3,4]oxadiazol-2-yl)-3-trifluoromethyl-pyridine] | > 32 |
| Cc1ccccc1-c1nnc(-c2ncc(C(F)(F)F)cc2Cl)o1 [Compound 341, 3-Chloro-2-(5-o-tolyl-[1,3,4]oxadiazol-2-yl)-5-trifluoromethyl-pyridine] | 20 |
| Oc1ccccc1-c1nnc(-c2ncccc2C(F)(F)F)o1 [Compound 342, 2-[5-(3-Trifluoromethyl-pyridin-2-yl)-[1,3,4]oxadiazol-2-yl]-phenol] | > 32 |
| Oc1ccccc1-c1nnc(-c2ncc(C(F)(F)F)cc2Cl)o1 [Compound 343, 2-[5-(3-Chloro-5-trifluoromethyl-pyridin-2-yl)-[1,3,4]oxadiazol-2-yl]-phenol] | 17 |
| COc1ccccc1-c1nnc(-c2ccccn2)o1 [Compound 344, 2-[5-(2-Methoxy-phenyl)-[1,3,4]oxadiazol-2-yl]-pyridine] | > 32 |
| COc1ccccc1-c1nnc(-c2ncccc2C(F)(F)F)o1 [Compound 345] | 8.3 |
| COc1ccccc1-c1nnc(-c2ncc(C(F)(F)F)cc2Cl)o1 [Compound 346, 3-Chloro-2-[5-(2-methoxy-phenyl)-[1,3,4]oxadiazol-2-yl]-5-trifluoromethyl-pyridine] | > 32 |
| Fc1ccccc1-c1nnc(-c2ccccn2)o1 [Compound 347, 2-[5-(2-Fluoro-phenyl)-[1,3,4]oxadiazol-2-yl]-pyridine] | > 32 |
| Fc1ccccc1-c1nnc(-c2ncccc2C(F)(F)F)o1 [Compound 348, 2-[5-(2-Fluoro-phenyl)-[1,3,4]oxadiazol-2-yl]-3-trifluoromethyl-pyridine] | > 32 |
| Fc1ccccc1-c1nnc(-c2ncc(C(F)(F)F)cc2Cl)o1 [Compound 349, 3-Chloro-2-[5-(2-fluoro-phenyl)-[1,3,4]oxadiazol-2-yl]-5-trifluoromethyl-pyridine] | > 32 |
| c1ccc(-c2n[nH]c(-c3cccc4ccccc34)n2)nc1 [Compound 350, 2-(5-Naphthalen-1-yl-1H-[1,2,4]triazol-3-yl)-pyridine] | > 19 |
| CC(C)(C)c1ccc(O)c(-c2nc(-c3ccccn3)n[nH]2)c1 [Compound 351, 4-tert-Butyl-2-(5-pyridin-2-yl-2H-[1,2,4]triazol-3-yl)-phenol] | 8.6 |
| O=[N+]([O-])c1ccc(O)c(-c2nc(-c3ccccn3)n[nH]2)c1 [Compound 352, 4-Nitro-2-(5-pyridin-2-yl-2H-[1,2,4]triazol-3-yl)-phenol] | 14 |
| Oc1ccc(F)cc1-c1nc(-c2ccccn2)n[nH]1 [Compound 353, 4-Fluoro-2-(5-pyridin-2-yl-2H-[1,2,4]triazol-3-yl)-phenol] | 7.1 |

| Compound | EC50 [µM] |
| --- | --- |
| Oc1ccc(Cl)cc1-c1nc(-c2ccccn2)n[nH]1 [Compound 354, 4-Chloro-2-(5-pyridin-2-yl-2H-[1,2,4]triazol-3-yl)-phenol] | 4.8 |
| CCOc1cccc(-c2nc(-c3ccccn3)n[nH]2)c1O [Compound 355, 6-Ethoxy-2-(5-pyridin-2-yl-2H-[1,2,4]triazol-3-yl)-phenol] | > 19 |
| Oc1cc(OCc2ccccc2)ccc1-c1nc(-c2ccccn2)n[nH]1 [Compound 356, 5-Benzyloxy-2-(5-pyridin-2-yl-2H-[1,2,4]triazol-3-yl)-phenol] | > 19 |
| Fc1cc(-c2nc(-c3ccccn3)n[nH]2)ccc1-c1ccccc1 [Compound 357, 2-[5-(2-Fluoro-biphenyl-4-yl)-1H-[1,2,4]triazol-3-yl]-pyridine] | 7.1 |
| Oc1ccc(Br)cc1-c1nc(-c2ccccn2)n[nH]1 [Compound 358, 4-Bromo-2-(5-pyridin-2-yl-2H-[1,2,4]triazol-3-yl)-phenol] | 4.3 |
| Cc1ccc(O)c(-c2nc(-c3ccccn3)n[nH]2)c1 [Compound 359, 4-Methyl-2-(5-pyridin-2-yl-2H-[1,2,4]triazol-3-yl)-phenol] | > 19 |
| COc1ccc(O)c(-c2nc(-c3ccccn3)n[nH]2)c1 [Compound 360, 4-Methoxy-2-(5-pyridin-2-yl-2H-[1,2,4]triazol-3-yl)-phenol] | 5.4 |
| Oc1ccccc1-c1nc(-c2ccccn2)n[nH]1 [Compound 361, 2-(5-pyridin-2-yl-2H-[1,2,4]triazol-3-yl)-phenol] | > 19 |
| COc1cccc(-c2nc(-c3ccccn3)n[nH]2)c1O [Compound 362, 6-Methoxy-2-(5-pyridin-2-yl-2H-[1,2,4]triazol-3-yl)-phenol] | > 19 |
| COc1ccc(-c2nc(-c3ccccn3)n[nH]2)c(O)c1 [Compound 363, 5-Methoxy-2-(5-pyridin-2-yl-2H-[1,2,4]triazol-3-yl)-phenol] | > 19 |
| O=[N+]([O-])c1cccc(-c2nc(-c3ccccn3)n[nH]2)c1 [Compound 364, 2-[5-(3-Nitro-phenyl)-1H-[1,2,4]triazol-3-yl]-pyridine] | > 32 |
| CCN(CC)c1ccc(-c2nc(-c3ccccn3)n[nH]2)c(O)c1 [Compound 365, 5-Diethylamino-2-(5-pyridin-2-yl-2H-[1,2,4]triazol-3-yl)-phenol] | > 32 |
| c1ccc2c(-c3nc(-c4nccc5ccccc45)n[nH]3)cccc2c1 [Compound 366, 1-(5-Naphthalen-1-yl-1H-[1,2,4]triazol-3-yl)-isoquinoline] | > 32 |
| CC(C)(C)c1ccc(O)c(-c2nc(-c3nccc4ccccc34)n[nH]2)c1 [Compound 367, 4-tert-Butyl-2-(5-isoquinolin-1-yl-2H-[1,2,4]triazol-3-yl)-phenol] | > 32 |
| O=[N+]([O-])c1ccc(O)c(-c2nc(-c3nccc4ccccc34)n[nH]2)c1 [Compound 368, 4-Nitro-2-(5-isoquinolin-1-yl-2H-[1,2,4]triazol-3-yl)-phenol] | > 32 |
| Oc1ccc(F)cc1-c1nc(-c2nccc3ccccc23)n[nH]1 [Compound 369, 4-Fluoro-2-(5-isoquinolin-1-yl-2H-[1,2,4]triazol-3-yl)-phenol] | 3.5 |
| COc1ccc(O)c(-c2nc(-c3nccc4ccccc34)n[nH]2)c1 [Compound 370, 4-Methoxy-2-(5-isoquinolin-1-yl-2H-[1,2,4]triazol-3-yl)-phenol] | 2.9 |
| Oc1ccc(Cl)cc1-c1nc(-c2nccc3ccccc23)n[nH]1 [Compound 371, 4-Chloro-2-(5-isoquinolin-1-yl-2H-[1,2,4]triazol-3-yl)-phenol] | > 19 |
| CCOc1cccc(-c2nc(-c3nccc4ccccc34)n[nH]2)c1O [Compound 372, 6-Ethoxy-2-(5-isoquinolin-1-yl-2H-[1,2,4]triazol-3-yl)-phenol] | > 19 |
| Oc1cc(OCc2ccccc2)ccc1-c1nc(-c2nccc3ccccc23)n[nH]1 [Compound 373, 5-Benzyloxy-2-(5-isoquinolin-1-yl-2H-[1,2,4]triazol-3-yl)-phenol] | > 19 |
| Oc1ccc(Br)cc1-c1nc(-c2nccc3ccccc23)n[nH]1 [Compound 374, 4-Bromo-2-(5-isoquinolin-1-yl-2H-[1,2,4]triazol-3-yl)-phenol] | > 19 |
| Cc1ccc(O)c(-c2nc(-c3nccc4ccccc34)n[nH]2)c1 [Compound 375, 4-Methyl-2-(5-isoquinolin-1-yl-2H-[1,2,4]triazol-3-yl)-phenol] | > 19 |
| COc1ccc(-c2nc(-c3nccc4ccccc34)n[nH]2)c(O)c1 [Compound 376, 5-Methoxy-2-(5-isoquinolin-1-yl-2H-[1,2,4]triazol-3-yl)-phenol] | > 19 |
| Oc1ccccc1-c1nc(-c2nccc3ccccc23)n[nH]1 [Compound 377, 2-(5-isoquinolin-1-yl-2H-[1,2,4]triazol-3-yl)-phenol] | > 19 |
| COc1cccc(-c2nc(-c3nccc4ccccc34)n[nH]2)c1O [Compound 378, 6-Methoxy-2-(5-isoquinolin-1-yl-2H-[1,2,4]triazol-3-yl)-phenol] | 16 |
